From BindingDB's records for patent US9428501 (Astellas Pharma Inc, 2016)

Target: 5'-AMP-activated protein kinase catalytic subunit alpha-2 (Homo sapiens, UniProt P54646)
Experiment: Activation Assay
Details: 37 °C
Procedure: After the incubation, 20 μl of a 40% glyoxal solution (Nacalai Tesque) was added to each well, and then cells were fixed by leaving to stand at room temperature for 30 minutes. Thereafter, the supernatant was removed by centrifuging the plate, and then 0.1% Triton X-100-containing Phosphate-Buffered Saline (PBS) was added to each well by 20 followed by incubating at room temperature for 10 minutes. […] The blocking solution was removed by centrifuging, with the exception of the blocking solution by centrifugation, and then a blocking solution which was diluted such that the amount of phosphorylation antibody (manufactured by Cell Signaling Technology, Inc) of ACC Ser79 as a primary antibody is 1/500 was added to each well by 10 followed by leaving to stand at 4° C. overnight. The following day, the reaction liquid was removed by centrifuging the plate, and then 0.05% Tween-20-containing Tris-Buffered Saline (TBS) (manufacture by Thermo Scientific Inc.; used in 1× in which 20×TBS Tween-20 was diluted with ion-exchange water) was added to each well by 25 followed by washing each well by centrifugal removal. The washing of each well was repeated for a total of 3 times. […]

Sequence of 5'-AMP-activated protein kinase catalytic subunit alpha-2 (P54646 whole entry): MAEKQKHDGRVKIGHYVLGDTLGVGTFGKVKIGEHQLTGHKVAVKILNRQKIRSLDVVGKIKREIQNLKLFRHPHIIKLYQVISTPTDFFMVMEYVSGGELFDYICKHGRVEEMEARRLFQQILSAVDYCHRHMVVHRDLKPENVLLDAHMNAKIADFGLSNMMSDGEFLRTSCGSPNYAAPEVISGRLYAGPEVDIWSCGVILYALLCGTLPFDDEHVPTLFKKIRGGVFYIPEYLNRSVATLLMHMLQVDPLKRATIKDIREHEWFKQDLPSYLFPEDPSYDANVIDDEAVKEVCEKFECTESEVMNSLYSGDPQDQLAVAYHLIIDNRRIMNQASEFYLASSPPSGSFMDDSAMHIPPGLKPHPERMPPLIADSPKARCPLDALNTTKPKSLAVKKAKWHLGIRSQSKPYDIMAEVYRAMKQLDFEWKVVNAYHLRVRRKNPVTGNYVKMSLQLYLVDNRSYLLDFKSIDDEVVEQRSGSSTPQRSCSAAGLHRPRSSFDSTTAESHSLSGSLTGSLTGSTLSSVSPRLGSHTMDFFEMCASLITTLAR

SMILES: CCOc1cnc(CN2CCC(c3ccc4cc(C(=O)N5CCN(Cc6ccc(C#N)cc6)CC5)n(C)c4c3)CC2)cn1 [US9428501, 69]
- EC50: 1.8 nM
